Experimental data reported in patent publication US8822698B2, “Aminoacid derivatives, their process of preparation and their therapeutical uses as inhibitors of oncogenic signals by the Met family” (Universite D'Aix-Marseille, priority 2009, dated 2014).
Where two headings read alike, the source gives them in different places.

Assays:
[1] = system: Met phosphorylation, HepG2 cells; experiment: Met phosphorylation upon HGF stimulation in HepG2 cells; assay type: cell-based, human
Procedure: After starvation, cells were pretreated with inhibitors, then stimulated with HGF, and total extracts were analyzed as described (Maina et al., Mol Cell 7, 1293-1306, 2001). Antibodies used were anti-tubulin (Sigma), anti-phospho Y1234-1235-Met, anti-Akt, anti-phospho-Akt, anti-phospho-Gab1, anti phosphor-ErbBs, anti-phospho-PDGFR, anti-PDGFRs, anti-ERKs (Cell Signaling), anti-ErbBs, anti-Met (Santa Cruz).
Activation of Met by HGF can be biochemically evaluated by following its phosphorylation levels and activation of downstream targets. We started to biochemically characterise the inhibitory properties of identified compounds by following Met phosphorylation and its downstream targets in HepG2 cells. […] These findings were further supported using other cell lines, such as MDA-MB231 human breast cancer cells (FIG. 2).

HepG2 cells = experiment: Soft agar anchorage-independent growth (in vitro tumorigenesis), HepG2; assay type: cell-based; details: Homo sapiens, read-out: HepG2 IC 50
Procedure: (§1) MDCK cells were grown in Dulbecco's modified Eagle's medium (DMEM) (Gibco BRL) containing 4 mM L-glutamine and supplemented with 2% (v/v) foetal bovine serum (Gibco BRL), 100 U/mL penicillin, and 100 μg/mL streptomycin. Cells were plated at a density of 1000 cells per well in 24-well microplates and allowed to settle overnight at 37° C. in a humidified atmosphere of 5% CO2 prior to treatments. MCF10A human breast cells, MDA-MB231 human breast cancer cells, GTL-16 human gastric carcinoma cells, HepG2 human hepatocellular carcinoma cells, U-87 human glioblastoma-astrocytoma cells and LLC Lewis lung carcinoma cells were grown in RPMI medium (Gibco BRL) containing 4 mM L-glutamine and supplemented with 2% (v/v) foetal bovine serum (Gibco BRL), 100 U/mL penicillin, and 100 μg/mL streptomycin and kept at 37° C. in a humidified atmosphere of 5% CO2.
For scattering assays, MDCK cells were pre-incubated with compounds for 2 hours at 0.1-100 μM concentrations at 37° C. in a humidified atmosphere of 5% CO2, followed by 24 hr stimulation with 20 ng/ml HGF (R&D Systems), as previously described (Patane et al., Biochem Biophys Res Commun 375, 184-189, 2008). […] The quantification of scattering response was performed by counting the number of cells with scattered morphology in 30 independent colonies. […] Viability was assessed with the Cell Titer Glo Luminescent Assay (Promega). […]

MDCK cells = experiment: Toxicity observed in the cell scattering screening; assay type: cell-based
Procedure: (§2) For scattering assays, MDCK cells were pre-incubated with compounds for 2 hours at 0.1-100 μM concentrations at 37° C. in a humidified atmosphere of 5% CO2, followed by 24 hr stimulation with 20 ng/ml HGF (R&D Systems), as previously described (Patane et al., Biochem Biophys Res Commun 375, 184-189, 2008). The cells were further incubated at 37° C. in an atmosphere of 5% CO2 for 24-48 hours, washed with phosphate-buffered saline (PBS; Gibco BRL), and fixed in PFA (Sigma). The quantification of scattering response was performed by counting the number of cells with scattered morphology in 30 independent colonies. The […] corresponds to the concentration of compounds leading to a 50% inhibition of Met-triggered cell scattering. Active compounds were assayed to impair scattering response also on human breast MCF10A cells following the same procedure. For survival assays, GTL-16, HepG2 and U-87 cells were cultured in serum-free media for 24 hours prior to compound addition for 48 hours. Viability was assessed with the Cell Titer Glo Luminescent Assay (Promega). For in vitro tumorigenesis, soft agar growth assays were preformed using GTL-16, HepG2, and U-87 cells, as previously described (Patane et al., Cancer Res 66, 4750-4757, 2006).
Compounds of examples 1 (XIII), 2 (XIV), 4 (XVI), 5 (XVII), and 6 (XVIII) in particular elicit inhibitory activity on Met-triggered cell scattering. […] The SU11274 (Met inhibitor; Sugen) was used as reference compound. […] These findings were further supported by analysing the inhibitory activity of compounds on breast cells. […] Altogether, these studies identify a new class of compounds of general formula (I), which are able to interfere with Met-triggered cell scattering.

[2] = system: Met-triggered cell scattering, MDCK cells; experiment: HGF-induced MDCK cell scattering assay; assay type: cell-based; details: Canis lupus familiaris
Procedure: as §1, §2
Compounds were first submitted to a biological screening of cell motility, namely scattering response. MDCK epithelial cells acquire a “scattered phenotype” following stimulation by the Met ligand, HGF (Chan et al., J Biomol Screen. 13, 847-854, 2008; Corso et al., Trends Mol Med 11, 284-292, 2005; Patane et al., Biochem Biophys Res Commun 375, 184-189, 2008), allowing direct evaluation of compounds on Met functions. The Met inhibitor […] was used as control in all assays (Schiering et al., Proc Natl Acad Sci USA 100, 12654-12659, 2003).

GTL-16 cells [3] = experiment: Soft agar anchorage-independent growth (in vitro tumorigenesis), GTL-16; assay type: cell-based, human; details: Homo sapiens; soft agar growth, GTL-16
Procedure: as §1
as §2, with “2006). […]” for “2006).”

GTL-16 cells [4] = details: Zou et al., 2007; cited from earlier work
[5] = MDCK cells, 20 ng/ml HGF, read-out: IC50 scattering inhibition

Structure (SMILES) | Toxicity (MDCK cells; Table 1, scattering screening) [µM] | IC50 [2, 5] [µM] | further results
Cc1cc(C)cc(CC(=O)N[C@@H](Cc2ccccc2)C(=O)Nc2ccc(-c3cn4c(n3)sc3ccccc34)cc2)c1 [Example 1, (S)-2-(3,5-dimethylphenylacetamido)-3-phenyl-N-[4-(imidazo[2,1-b]benzothiazol-2-yl)phenyl]propanamide] | >100 | – | Met phosphorylation [1]: significantly reduced; IC50 (HepG2 cells): 2.73 µM
Cc1cc(C)cc(CC(=O)N[C@H](Cc2ccccc2)C(=O)Nc2ccc(-c3cn4c(n3)sc3ccccc34)cc2)c1 [Example 2, (R)-2-(3,5-dimethylphenylacetamido)-3-phenyl-N-[4-(imidazo[2,1-b]benzothiazol-2-yl)phenyl]propanamide] | >100 | – | –
O=C(Cc1cc(C(F)(F)F)cc(C(F)(F)F)c1)N[C@H](Cc1ccccc1)C(=O)Nc1ccc(-c2cn3c(n2)sc2ccccc23)cc1 [Example 5, (R)-2-(3,5-bis(trifluoromethyl)phenylacetamido)-3-phenyl-N-[4-(imidazo[2,1-b]benzothiazol-2-yl)phenyl]propanamide] | >50 | 0.206 | IC50 (GTL-16 cells [3]): 1.19 µM
O=C(Cc1cc(F)cc(F)c1)N[C@@H](Cc1ccccc1)C(=O)Nc1ccc(-c2cn3c(n2)sc2ccccc23)cc1 [Example 6] | >100 | – | –
Cc1[nH]c(/C=C2\C(=O)Nc3ccc(S(=O)(=O)N(C)c4cccc(Cl)c4)cc32)c(C)c1C(=O)N1CCN(C)CC1 [SU11274, (3Z)—N-(3-Chlorophenyl)-3-({3,5-dimethyl-4-[(4-methylpiperazin-1-yl)carbonyl]-1H-pyrrol-2-yl}methylene)-N-methyl-2-oxo-2,3-dihydro-1H-indole-5-sulfonamide, reference compound] | – | 0.251 | Soft-agar growth of GTL-16 cells (GTL-16 cells [4]): impaired
C[C@@H](NC(=O)Cc1cc(F)cc(F)c1)C(=O)Nc1ccc(-c2cn3c4c(sc3n2)CCCC4)cc1 [reference compound] | – | – | IC50 ([2]; MDCK, comparative compound, same test, read-out: Scattering inhibition): 10 µM; Toxicity (MDCK cells; comparative compound, toxic at this concentration): at 100 μM
